Patent US20140220094A1, “METHODS AND COMPOSITIONS FOR A LAPAROSCOPIC SURGERY” (Prelief Inc., priority 2009, published 2014)

Test system: laparoscopic ports
Experiment: Laparoscopic cutaneous studies: treated vs untreated laparoscopic port sites
Format: in vivo, human
Conditions: another patient, 10 days after the treatment
Procedure: Cellerity® 10 topical lotion has been used in single patient multiple sites laparoscopic procedure studies. The studies compared healing time, severity of scar formation and inflammation at laparoscopic ports with and without CGP treatment.
The treatment was started within 24 hours after the laparoscopic surgery. The patient was instructed to allow the applied lotion to dry completely before applying their clothes and not to wash the treatment area for two hours after the application. This procedure was performed twice a day for three full weeks. […] The untreated ports were grossly inflamed, had tissue necrosis at the incision site and desquamation of epithelium. It also remained inflamed and the staple sites were still prominent and erythematous. At the incision line, a glassy layer of fibroblastic scar tissue was present.
Steri-Strips to the left side of the incisions, and leaving the midline left untreated. […] The untreated midline scar remained as inflamed and delayed in the healing process by 3-4 weeks, because the inflamed situation must resolve before the healing can occur. That delay appeared to have allowed more fibroblastic growth in the untreated scar, than was present on the treated scars.

Question: Which results are given for calcium glycerophosphate [CGP]?
Answer: edematous changes vs untreated midline incision (left and right sides treated): no edematous changes; erythema vs untreated midline incision (left and right sides treated): less erythema; inflammation vs untreated midline incision (left and right sides treated): substantially less inflammation; difference between direct application (right side) and application through Steri-Strips (left side) (treatment started 24 hours after surgery): no difference
